In ChEMBL document CHEMBL6153061, “Sialyl Lewisx Glycomimetics as E- and P-Selectin Antagonists Targeting Hyperinflammation” (ACS Med Chem Lett, 2025):
Calls of active or inactive are those of the source. The rule behind the calls is not given here.

Tests used:
[1] = tested on: Mus musculus; experiment: Immunosuppressive effect in thioglycolate-induced hyper-inflammatory C57BL/6 wild type mouse model assessed as effect on neutrophil level in […] peritoneal cavity at 2.5 micromol/kg, iv measured after 2 hrs by flow cytometry based in vivo cell recruitment assay; format: functional, organism-based; conditions: dose 2.5 µmol/kg
[2] = tested on: Mus musculus; experiment: (§1) Immunosuppressive effect in thioglycolate-induced hyper-inflammatory C57BL/6 wild type mouse model assessed as effect on CD11b+ level in […] peritoneal cavity at 2.5 micromol/kg, iv pre-administered 10 min followed by thioglycolate administration measured after 10 min by flow cytometry based in vivo cell recruitment assay; format: functional, organism-based; conditions: dose 2.5 µmol/kg, time 20.0 min
[3] = tested on: Mus musculus; experiment: (§2) Immunosuppressive effect in thioglycolate-induced hyper-inflammatory C57BL/6 wild type mouse model assessed as reduction in PSGL-1+ level in […] peritoneal cavity at 2.5 micromol/kg, iv administered after 24 hrs of thioglycolate injection in peritoneal cavity followed by after 2 hrs treated at 2.5 micromol/kg, ip and followed by after 6 hrs treated at 2.5 micromol/kg, ip and followed by after 15 hrs treated at 2.5 micromol/kg, ip and measured after 3 hrs by flow cytometry based in vivo cell recruitment assay; format: functional, organism-based; conditions: time 26.0 hrs
[4] = tested on: Mus musculus; experiment: as §1, with “PSGL-1+” for “CD11b+”, “micromol/kg,iv” for “micromol/kg, iv”; format: functional, organism-based; conditions: dose 2.5 µmol/kg, time 20.0 min
[5] = tested on: Mus musculus; experiment: as §1, with “macrophage/monocytes” for “CD11b+”; format: functional, organism-based; conditions: dose 2.5 µmol/kg, time 20.0 min
[6] = tested on: Mus musculus; experiment: as §2, with “macrophage/monocyte” for “PSGL-1+”; format: functional, organism-based; conditions: time 26.0 hrs
[7] = tested on: Mus musculus; experiment: as §2, with “CD11b+” for “PSGL-1+”; format: functional, organism-based; conditions: time 26.0 hrs
[8] = tested on: Mus musculus; experiment: Immunosuppressive activity in thioglycolate induced hyper-inflammatory C57BL/6 wild type mouse model assessed as effect on neutrophil levels at 2 micromol/kg, iv pre-administered 10 min followed by thioglycolate administration measured after 10 min by flow cytometry analysis; format: functional, organism-based; conditions: dose 2.0 µmol/kg, time 20.0 min
[9] = tested on: Mus musculus; experiment: (§3) Immunosuppressive effect in thioglycolate induced hyper-inflammatory C57BL/6 wild type mouse model assessed as reduction in CD11b+ level in […] peritoneal cavity at 2.5 micromol/kg,iv pre-administered for 10 min followed by thioglycolate administration for 10 min and further incubated with compound for 1 hr 40 min by flow cytometry in vivo cell recruitment assay; format: functional, organism-based; conditions: dose 2.5 µmol/kg, time 2.0 hrs
[10] = tested on: Mus musculus; experiment: as §2, with “neutrophil” for “PSGL-1+”; format: functional, organism-based; conditions: time 26.0 hrs
[11] = tested on: Mus musculus; experiment: Immunosuppressive activity in thioglycolate induced hyper-inflammation in C57BL/6 wild type mouse model assessed as reduction in macrophages/monocytes levels at 2 micromol/kg, iv pre-administered for 10 min followed by thioglycolate administration for 10 min and further incubated with compound for 1 hr 40 min by flow cytometry in vivo cell recruitment assay; format: functional, organism-based; conditions: dose 2.0 µmol/kg, time 2.0 hrs
[12] = tested on: Mus musculus; experiment: as §3, with “thioglycolate-induced” for “thioglycolate induced”, “neutrophil” for “CD11b+”, “micromol/kg, iv” for “micromol/kg,iv”, “cytometry based” for “cytometry”; format: functional, organism-based; conditions: dose 2.5 µmol/kg, time 2.0 hrs
[13] = target: T1, P-selectin (Homo sapiens, UniProt P16109); experiment: Binding affinity to recombinant human P-selectin assessed as dissociation constant by surface plasmon resonance (SPR) analysis
T1 sequence (P16109 whole entry): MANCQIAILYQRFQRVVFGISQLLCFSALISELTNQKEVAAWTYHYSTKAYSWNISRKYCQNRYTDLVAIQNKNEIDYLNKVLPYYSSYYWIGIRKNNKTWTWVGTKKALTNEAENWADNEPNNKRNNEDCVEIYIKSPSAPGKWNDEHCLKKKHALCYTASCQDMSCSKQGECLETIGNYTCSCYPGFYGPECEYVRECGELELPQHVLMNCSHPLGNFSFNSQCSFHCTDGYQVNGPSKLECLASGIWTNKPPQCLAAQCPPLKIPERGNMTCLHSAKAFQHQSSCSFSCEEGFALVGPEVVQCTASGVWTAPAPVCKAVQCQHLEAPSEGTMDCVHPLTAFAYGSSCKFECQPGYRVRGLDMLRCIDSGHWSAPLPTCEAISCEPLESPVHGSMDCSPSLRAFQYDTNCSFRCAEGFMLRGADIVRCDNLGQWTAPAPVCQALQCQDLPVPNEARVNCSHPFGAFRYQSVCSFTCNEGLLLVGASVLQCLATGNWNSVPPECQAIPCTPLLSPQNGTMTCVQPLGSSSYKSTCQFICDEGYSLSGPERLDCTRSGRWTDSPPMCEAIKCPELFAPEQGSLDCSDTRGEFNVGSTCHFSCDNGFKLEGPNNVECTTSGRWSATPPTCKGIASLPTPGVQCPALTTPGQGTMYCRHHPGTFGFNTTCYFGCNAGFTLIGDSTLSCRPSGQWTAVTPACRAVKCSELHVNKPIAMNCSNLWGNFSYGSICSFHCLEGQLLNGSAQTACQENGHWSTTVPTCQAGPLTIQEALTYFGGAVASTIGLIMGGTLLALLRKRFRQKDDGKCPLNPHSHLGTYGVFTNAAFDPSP

[14] = target: T2, E-selectin (Homo sapiens, UniProt P16581); experiment: Binding affinity to recombinant human E-selectin assessed as dissociation constant by surface plasmon resonance (SPR) analysis
T2 sequence (P16581 whole entry): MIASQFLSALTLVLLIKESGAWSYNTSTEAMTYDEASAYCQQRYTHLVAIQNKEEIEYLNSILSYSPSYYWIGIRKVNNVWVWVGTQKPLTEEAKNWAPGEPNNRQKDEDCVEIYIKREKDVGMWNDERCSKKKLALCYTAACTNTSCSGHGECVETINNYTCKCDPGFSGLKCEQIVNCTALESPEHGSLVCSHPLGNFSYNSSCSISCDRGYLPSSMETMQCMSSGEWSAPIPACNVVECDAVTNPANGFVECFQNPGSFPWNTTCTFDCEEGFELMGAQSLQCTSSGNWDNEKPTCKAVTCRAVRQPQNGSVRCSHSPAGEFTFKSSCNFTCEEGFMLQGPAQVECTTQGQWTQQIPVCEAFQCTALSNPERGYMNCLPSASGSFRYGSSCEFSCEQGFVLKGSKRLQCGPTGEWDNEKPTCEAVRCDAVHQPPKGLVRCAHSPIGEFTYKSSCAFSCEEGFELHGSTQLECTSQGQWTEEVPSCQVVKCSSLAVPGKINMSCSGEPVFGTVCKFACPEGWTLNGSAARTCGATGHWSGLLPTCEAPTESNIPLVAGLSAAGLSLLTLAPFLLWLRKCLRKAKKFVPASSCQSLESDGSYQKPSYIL

[15] = tested on: Mus musculus; experiment: as §3, with “PSGL-1 positive cell” for “CD11b+”, “micromol/kg, iv” for “micromol/kg,iv”, “cytometry based” for “cytometry”; format: functional, organism-based; conditions: dose 2.5 µmol/kg, time 2.0 hrs

SMILES	Activity [1]	Activity [2]	Activity [3]	Activity [4]	Activity [5]	Activity [6]	Activity [7]	Activity [8]	Activity [9]	Activity [10]	Activity [11]	Activity [12]	Kd [13]	Kd [14]	Activity [15]
CC(C)OC(=O)[C@H](O[C@@H]1O[C@@H](C)[C@@H](O)[C@@H](O)[C@@H]1O)[C@@H](O[C@@H]1O[C@H](COC(=O)c2ccccc2)[C@@]2(O)CC[C@H](C(=O)O)O[C@H]2[C@H]1OC(=O)c1ccccc1)C(=O)OC(C)C	inactive	–	–	–	–	–	–	–	–	–	–	–	–	–	–
CC(C)OC(=O)[C@H](O[C@@H]1O[C@@H](C)[C@@H](O)[C@@H](O)[C@@H]1O)[C@@H](O[C@@H]1O[C@H](CO)[C@@]2(O)CC[C@@H](c3nnn[nH]3)O[C@@H]2[C@H]1OC(=O)c1ccccc1)C(=O)OC(C)C	–	inactive	Active	inactive	inactive	Active	Active	inactive	Active	Active	Active	Active	–	–	–
CC(C)OC(=O)[C@H](O[C@@H]1O[C@@H](C)[C@@H](O)[C@@H](O)[C@@H]1O)[C@@H](O[C@@H]1O[C@H](CO)[C@H](O)[C@H](O[C@H](Cc2ccccc2)C(=O)O)[C@H]1OC(=O)c1ccccc1)C(=O)OC(C)C	–	–	–	–	–	–	–	–	–	–	–	–	1000 nM	1000 nM	–
CC(=O)N[C@@H]1[C@@H](O[C@@H]2O[C@@H](C)[C@@H](O)[C@@H](O)[C@@H]2O)[C@H](O[C@@H]2O[C@H](CO)[C@H](O)[C@H](O[C@]3(C(=O)O)C[C@H](O)[C@@H](NC(C)=O)[C@H]([C@H](O)[C@H](O)CO)O3)[C@H]2O)[C@@H](CO)O[C@H]1O	inactive	–	–	–	–	–	–	–	–	–	–	–	–	–	–
CC(C)OC(=O)[C@H](O[C@@H]1O[C@@H](C)[C@@H](O)[C@@H](O)[C@@H]1O)[C@@H](O[C@@H]1O[C@H](COC(=O)c2ccccc2)[C@@]2(O)CC[C@@H](C(=O)O)O[C@H]2[C@H]1OC(=O)c1ccccc1)C(=O)OC(C)C	Active; Lowering Neutrophil Levels	inactive	Active	inactive	inactive	Active	Active	inactive	Active	Active	Active	Active	–	–	–
CC(C)OC(=O)[C@H](O[C@@H]1O[C@@H](C)[C@@H](O)[C@@H](O)[C@@H]1O)[C@@H](O[C@@H]1O[C@H](COC(=O)c2ccccc2)[C@@]2(O)CC[C@@H](c3nnn[nH]3)O[C@@H]2[C@H]1OC(=O)c1ccccc1)C(=O)OC(C)C	–	inactive	Active	inactive	inactive	Active	Active	inactive	Active	Active	Active	Active	–	–	Active
